Assay results published in article PMC11873650 (Acta Pharmaceutica Sinica. B, 2024).
pIC50: −log10 of the molar value.

How the values were obtained:
[1] = system: phosphorylated β-Catenin (p-β-Catenin); assay: Western blot of β-Catenin phosphorylation in MIA PaCa-2 cells; format: cell-based, human; conditions: for level of p-β-Catenin: MIA PaCa-2 cells, 1 μmol/L, 72 h
[2] = target: phosphorylated PAK4 (p-PAK4) (Homo sapiens, UniProt O96013); assay: Western blot of PAK4 phosphorylation in MIA PaCa-2 cells; format: cell-based; conditions: for level of p-PAK4: MIA PaCa-2 cells, 1 μmol/L, 72 h
Pharmacokinetics in rats = format: in vivo; conditions: rat, plasma
MIA PaCa-2 xenograft = conditions: 100 mg/kg q.d. intraperitoneally
Pan02 allograft = assay: Pan02 syngeneic model; format: in vivo, C57BL/6 mice; conditions: 100 mg/kg intraperitoneally three times per five days, 26 days

Chain of phosphorylated PAK4 (p-PAK4) (O96013 whole entry): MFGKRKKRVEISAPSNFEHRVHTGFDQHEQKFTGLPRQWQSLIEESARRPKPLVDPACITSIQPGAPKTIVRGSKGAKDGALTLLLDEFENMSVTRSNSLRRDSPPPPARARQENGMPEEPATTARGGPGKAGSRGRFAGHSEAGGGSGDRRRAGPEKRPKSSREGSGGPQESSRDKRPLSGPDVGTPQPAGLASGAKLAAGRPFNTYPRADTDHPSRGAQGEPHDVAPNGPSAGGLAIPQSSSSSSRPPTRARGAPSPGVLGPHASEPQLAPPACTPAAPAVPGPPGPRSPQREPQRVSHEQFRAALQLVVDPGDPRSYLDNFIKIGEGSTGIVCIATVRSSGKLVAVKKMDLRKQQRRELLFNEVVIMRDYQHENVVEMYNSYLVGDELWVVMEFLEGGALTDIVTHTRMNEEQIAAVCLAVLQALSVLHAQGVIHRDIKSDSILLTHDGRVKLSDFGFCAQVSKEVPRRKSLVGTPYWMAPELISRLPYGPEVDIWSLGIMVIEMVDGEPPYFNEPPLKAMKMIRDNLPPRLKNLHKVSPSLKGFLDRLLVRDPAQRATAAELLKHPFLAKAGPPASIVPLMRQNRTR

Structure (SMILES)	pIC50 ([1]; Homo sapiens, MIA PaCa-2, 72 h, read-out: IC50 against p-β-Catenin)	pIC50 [2]	AUC(0-t) (Pharmacokinetics in rats; iv, 1 mg/kg)	AUC(0-t) (Pharmacokinetics in rats; po, 3 mg/kg)	mortality (MIA PaCa-2 xenograft; 20-day study)	tumor growth inhibition rate (TGI) (MIA PaCa-2 xenograft; 20 days)	tumor growth inhibition (Pan02 allograft)	level of p-β-Catenin [1]	level of p-PAK4 [2]
Nc1ccc(/C=C/C(=O)NCc2cc3cc(-c4ccc(C(=O)N5CCC(F)(F)CC5)cc4)cc(-c4ccc(F)cc4)c3o2)cn1 [Compound 4]	5.68	5.72	94400 ng·h/mL	55500 ng·h/mL	two mice	77.8%	modest tumor growth inhibition		
Nc1ccc(/C=C/C(=O)N2CCc3c(oc4c(-c5ccc(F)cc5)cc(-c5ccc(C(=O)N6CCC(F)(F)CC6)nn5)cc34)C2)cn1 [Compound 18, (E)-3-(6-Aminopyridin-3-yl)-1-(6-(6-(4,4-difluoropiperidine-1-carbonyl)pyridazin-3-yl)-8-(4-fluorophenyl)-3,4-dihydrobenzofuro[2,3-c]pyridin-2(1H)-yl)prop-2-en-1-one]								superior to 4	superior to 4
Nc1ccc(/C=C/C(=O)N2CCc3c(oc4c(-c5ccc(F)cc5)cc(-c5ccc(C(=O)N6CCOCC6)nn5)cc34)C2)cn1 [Compound 19, (E)-3-(6-Aminopyridin-3-yl)-1-(8-(4-fluorophenyl)-6-(6-(morpholine-4-carbonyl)pyridazin-3-yl)-3,4-dihydrobenzofuro[2,3-c]pyridin-2(1H)-yl)prop-2-en-1-one]								superior to 4	superior to 4
